From US8476031B2, “Methods for protein labeling based on acyl carrier protein” (priority 2003, dated 2013)

Experiments:
[1] = target: T1, ACP-NK1 fusion protein displayed on HEK293 cells (UniProt P0A6A8+P24224+P25103); experiment: Labeling of ACP-NK1 fusion protein displayed on HEK293 cells (confocal fluorescence microscopy); type: cell-based; settings: 5 μM CoA substrate, 1 μM 6xHis-AcpS, 10 min RT; CoA-Bt followed by Streptavidin-Cy5; no staining of non-transfected cells
T1 construct: FLAG tag (C); 6xHis tag (C); expressed in transfected cells; host or cells: HEK293 (transient, pCEP4 vector)
T1 sequence (P0A6A8+P25103 fused, one chain of several): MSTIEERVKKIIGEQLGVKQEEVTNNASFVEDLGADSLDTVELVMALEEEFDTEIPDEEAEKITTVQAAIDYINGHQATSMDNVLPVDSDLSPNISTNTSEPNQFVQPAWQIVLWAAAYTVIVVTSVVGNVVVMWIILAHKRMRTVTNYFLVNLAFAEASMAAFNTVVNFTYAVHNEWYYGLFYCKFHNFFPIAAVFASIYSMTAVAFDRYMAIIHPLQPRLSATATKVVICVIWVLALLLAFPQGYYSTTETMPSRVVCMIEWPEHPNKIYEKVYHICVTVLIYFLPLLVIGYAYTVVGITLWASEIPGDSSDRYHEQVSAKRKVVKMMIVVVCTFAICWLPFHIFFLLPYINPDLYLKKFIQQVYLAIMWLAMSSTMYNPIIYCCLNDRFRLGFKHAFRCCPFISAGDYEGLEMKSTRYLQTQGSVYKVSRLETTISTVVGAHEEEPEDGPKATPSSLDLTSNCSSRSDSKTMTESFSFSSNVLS
Protocol: For the transient expression of ACP-NK1, the signal sequence of the 5-HT3-receptor (Sig5HT3) is fused to the N terminus of ACP via a short DYV linker and NK1 is fused to the C terminus of ACP via a short TS linker. In the resulting construct, a FLAG tag and a 6xHis tag is also attached to the C terminus of NK1. The corresponding gene of the fusion protein is inserted into the NheI and BamHI sites of the vector pCEP4 (Invitrogen). HEK293 cells are grown in DMEM/F2 (Dulbecco's modified Eagle medium, GIBCO BRL) supplemented with […] fetal calf serum (GIBCO, BRL). Transient transfection is performed as described (Nat Biotechnol 21, 86-89 (2003)) and the HEK293 cells are co-transfected with vectors expressing ACP-NK1 and a nuclear targeted EGEP (EGFP-NLS3). After 24 h, cells are incubated for 10 min at room temperature with 500 μl of PBS buffer containing MgCl2 (10 mM), 6xHis-AcpS (1 μM) and either CoA-Cy3, CoA-Cy5 or CoA-Bt (each 5 μM). The cells are then washed three times with PBS to remove any excess substrate and directly analyzed by laser-scanning confocal fluorescence microscopy when labeled with Cy3 or Cy5. Biotinylated cells are incubated with FluoroLink™ Cy5-labeled streptavidin (Amersham Biosciences) at concentrations of 1 μg/ml in PBS before being washed three times with PBS. Laser-scanning confocal micographs are recorded using a 488 nm argon/krypton laser line; a 543 nm HeNe laser line or a 633 nm HeNe laser line on a Zeiss LSM 510 microscope (Carl Zeiss AG, Göttingen, Germany) with a 63× water (1.2 numerical aperture) objective. Scanning speed and laser intensity are adjusted to avoid photobleaching of the fluorescent probes, and damage or morphological changes of the cells. Fluorescence is analyzed in the channels sensitive to GFP and sensitive to the respective dye. […] The ACP-NK1 receptor transiently expressed in HE293 cells is co-stained in a further experiment with CoA-Cy5 and with tetramethylrhodamine-labeled substance P(SP-rho), the natural ligand of NK1.

6xHis-ACPS = target: T2, 6xHis-ACPS (Escherichia coli, UniProt P24224); experiment: Competition assay between CoA and CoA-label as ACPS substrates; type: biochemical, E. coli; settings: 6xHis-ACP 0.4 μM, 6xHis-ACPS 0.4 μM, CoA-L 2 μM, CoA 0-80 μM; fit I=A/(1+Bx) of Western blot intensities
T2 sequence (P24224 1-126): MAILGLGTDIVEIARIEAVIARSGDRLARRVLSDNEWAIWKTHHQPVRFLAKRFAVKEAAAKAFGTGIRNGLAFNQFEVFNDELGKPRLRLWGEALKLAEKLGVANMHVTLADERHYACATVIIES
Protocol: (C) Competition assay between CoA and CoA-Bt or CoA-Dg as ACPS substrates: 6xHis-ACP (0.4 μM), 6xHis-ACPS (0.4 μM), CoA-Bt or CoA-Dg (2 μM) and varying concentrations of CoA (0-80 μM) are incubated for 30 min and the degree of labeling determined by Western blotting.
Purified 6xHis-AcpS (0.4 μM) is incubated at RT with either CoA-Bt or CoA-Dg (2 μM), variable amounts of CoA (0, 2, 4, 8, 12, 20, 40, 80 μM) and purified 6xHis-ACP-ha (0.4 μM) in 20 μl reaction buffer (50 mM Tris.Cl, pH 7.5, 10 mM MgCl2). After 25 minutes, each sample is quenched by addition of 20 μl of 2×SDS sample buffer and heated at 95° C. for 2 minutes. Labeled 6xHis-ACP-ha is detected by Western-blotting using either a streptavidin-horseradish peroxidase conjugate (dilution 1:12500) or an anti-digoxigenin antibody-horseradish peroxidase conjugate (dilution 1:500) and a chemiluminescent peroxidase substrate. Signal intensities at 0 μM CoA are arbitrary set to 1 for each experiment.

6xHis-ACP = 6xHis-ACP (Escherichia coli, UniProt P0A6A8+P24224); experiment: In vitro biotinylation of 6xHis-ACP using CoA-Bt and 6xHis-ACPS (Western blot); type: biochemical, E. coli; settings: 6xHis-ACP 1 μM, 6xHis-ACPS 0.2 μM, CoA-Bt 5 μM; controls lacking components
6xHis-ACP, sequence (P0A6A8 whole entry, looked up, one chain of several): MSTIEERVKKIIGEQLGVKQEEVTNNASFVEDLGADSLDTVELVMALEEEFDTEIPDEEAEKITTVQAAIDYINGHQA
Protocol: (A) Analysis of the reaction of 6xHis-ACP (1 μM), 6xHis-ACPS (0.2 μM) and CoA-Bt (5 μM). At indicated times (t) aliquots are removed from the reaction mixture and biotinylation of 6xHis-ACP probed by Western blotting using a streptavidin-peroxidase conjugate.
Purified 6xHis-ACP (1 μM) is incubated with 6xHis-ACPS (0.2 μM) and MgCl2 (10 mM) in reaction buffer (43 μl, 50 mM Tris Cl, pH 8.8) at room temperature. An aliquot of 7.5 μl is taken for analysis. CoA-Bt is added to a final concentration of 5 μM. Aliquots of 7.5 μl are taken at defined times. The aliquots are quenched for 30 seconds with coenzyme A (1 mM final concentration), and 8.2 μl SDS-buffer 2× are added. The samples are heated for 2 minutes at 95° C. The biotinylated 6xHis-ACP is detected by Western-blotting, using a streptavidin-horseradish peroxidase conjugate (NEN) and a chemiluminescent peroxidase substrate (Renaissance reagent plus, NEN). The western blot is analyzed using an image station (Kodak 440). As controls, samples containing each protein alone, and samples containing only one of the two proteins and CoA-Bt are also prepared and analyzed for biotinylation as above in order to check the background and to check the specificity of the reaction.

[2] = target: T3, ACP-NK1 receptor transiently expressed in HE293 cells (UniProt P0A6A8+P25103); experiment: Co-staining of ACP-NK1 with CoA-Cy5 and SP-rho, reversal by unlabeled substance P; type: cell-based; settings: CoA-Cy5 and SP-rho co-stained
T3 construct: FLAG tag (C); 6xHis tag (C); expressed in transfected cells; host or cells: HEK293 (transient, pCEP4 vector)
T3 sequence (P0A6A8+P25103 fused): as the sequence (P0A6A8+P25103 fused, one chain of several) above
Protocol: For the transient expression of ACP-NK1, the signal sequence of the 5-HT3-receptor (Sig5HT3) is fused to the N terminus of ACP via a short DYV linker and NK1 is fused to the C terminus of ACP via a short TS linker. In the resulting construct, a FLAG tag and a 6xHis tag is also attached to the C terminus of NK1. The corresponding gene of the fusion protein is inserted into the NheI and BamHI sites of the vector pCEP4 (Invitrogen). HEK293 cells are grown in DMEM/F2 (Dulbecco's modified Eagle medium, GIBCO BRL) supplemented with […] fetal calf serum (GIBCO, BRL). Transient transfection is performed as described (Nat Biotechnol 21, 86-89 (2003)) and the HEK293 cells are co-transfected with vectors expressing ACP-NK1 and a nuclear targeted EGEP (EGFP-NLS3). […] The cells are then washed three times with PBS to remove any excess substrate and directly analyzed by laser-scanning confocal fluorescence microscopy when labeled with Cy3 or Cy5. […] Laser-scanning confocal micographs are recorded using a 488 nm argon/krypton laser line; a 543 nm HeNe laser line or a 633 nm HeNe laser line on a Zeiss LSM 510 microscope (Carl Zeiss AG, Göttingen, Germany) with a 63× water (1.2 numerical aperture) objective. […] Fluorescence is analyzed in the channels sensitive to GFP and sensitive to the respective dye. […]

Row | SMILES | membrane labelling of transfected HEK293 cells [1] | ratio of the specificity constants (kcat/KM)CoA/(kcat/KM)CoA-L (6xHis-ACPS) | biotinylation of 6xHis-ACP, specificity controls (6xHis-ACP) | staining localisation in co-staining experiment [2]
1 | CC(C)(COP(=O)(O)OP(=O)(O)OC[C@H]1O[C@@H](n2cnc3c(N)ncnc32)C(O)[C@H]1OP(=O)(O)O)[C@@H](O)C(=O)NCCC(=O)NCCS[C@@H]1CC(=O)N(CCCCCC(=O)NNC(=O)CCCC[C@@H]2SC[C@@H]3NC(=O)N[C@@H]32)C1=O (stereo partly shown) [CoA-Bt] | clear membrane labelling | 0.48 | depends on the presence of all three components | –
2 | CCN1/C(=C/C=C/C2=[N+](CCCCCC(=O)NCCN3C(=O)C[C@@H](SCCNC(=O)CCNC(=O)[C@H](O)C(C)(C)COP(=O)(O)OP(=O)(O)OC[C@H]4O[C@@H](n5cnc6c(N)ncnc65)C(O)[C@H]4OP(=O)(O)O)C3=O)c3ccc(S(=O)(=O)O)cc3C2(C)C)C(C)(C)c2cc(S(=O)(=O)[O-])ccc21 (stereo partly shown) [CoA-Cy3] | clear membrane labelling | – | – | –
3 | CCN1/C(=C/C=C/C=C/C2=[N+](CCCCCC(=O)NCCN3C(=O)C[C@@H](SCCNC(=O)CCNC(=O)[C@H](O)C(C)(C)COP(=O)(O)OP(=O)(O)OC[C@H]4O[C@@H](n5cnc6c(N)ncnc65)C(O)[C@H]4OP(=O)(O)O)C3=O)c3ccc(S(=O)(=O)O)cc3C2(C)C)C(C)(C)c2cc(S(=O)(=O)[O-])ccc21 (stereo partly shown) [CoA-Cy5] | clear membrane labelling | – | – | stain exclusively the membrane area
4 | CC(C)(COP(=O)(O)OP(=O)(O)OC[C@H]1O[C@@H](n2cnc3c(N)ncnc32)C(O)[C@H]1OP(=O)(O)O)[C@@H](O)C(=O)NCCC(=O)NCCSC1CC(=O)N(CCCCCC(=O)NNC(=O)CCC(=O)N[C@H]2CC[C@@]3(C)[C@H](CC[C@@H]4[C@H]3C[C@@H](O)[C@]3(C)[C@@H](C5=CC(=O)OC5)CC[C@]43O)C2)C1=O (stereo partly shown) [CoA-Dg] | – | 0.35 | – | –
